Calls of active or inactive are those of the source.
Columns and labels:
Type in all cases: functional
[1] = biological target: T1, Rac GTPase-activating protein 1 (Homo sapiens, UniProt Q9H0H5); experiment: blockers of MgcRacGAP-driven Rac1 GTP hydrolysis – biochemical, ADP Hunter fluorescence, primary and confirmatory, confirmation (AID 624330)
T1 sequence (Q9H0H5 whole entry): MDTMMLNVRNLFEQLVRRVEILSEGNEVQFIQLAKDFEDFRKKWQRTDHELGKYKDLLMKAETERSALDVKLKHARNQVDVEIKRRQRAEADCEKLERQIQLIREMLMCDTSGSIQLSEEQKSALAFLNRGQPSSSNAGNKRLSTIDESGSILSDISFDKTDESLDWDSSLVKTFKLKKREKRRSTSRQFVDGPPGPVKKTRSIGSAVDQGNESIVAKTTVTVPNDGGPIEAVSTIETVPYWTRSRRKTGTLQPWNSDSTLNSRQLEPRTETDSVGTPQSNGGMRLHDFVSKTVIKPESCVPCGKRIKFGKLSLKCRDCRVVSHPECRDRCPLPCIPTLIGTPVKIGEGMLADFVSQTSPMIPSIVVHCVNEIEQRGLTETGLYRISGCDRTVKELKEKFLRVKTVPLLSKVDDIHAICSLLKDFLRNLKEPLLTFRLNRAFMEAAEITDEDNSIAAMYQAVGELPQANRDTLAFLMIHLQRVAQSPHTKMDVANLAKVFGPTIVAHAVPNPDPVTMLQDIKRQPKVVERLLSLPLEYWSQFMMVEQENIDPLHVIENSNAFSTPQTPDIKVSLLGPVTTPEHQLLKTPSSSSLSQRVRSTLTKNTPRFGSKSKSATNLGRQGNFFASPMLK

[2] = biological target: T2, Corticotropin-releasing factor receptor 2/Corticotropin-releasing factor-binding protein (Homo sapiens, UniProt P24387+Q13324); experiment: activators of CRF receptor 2 with binding protein – uHTS hits, confirmation (AID 602473); conditions: read-out: EC50_Mean
T2 sequence (Q13324 whole entry): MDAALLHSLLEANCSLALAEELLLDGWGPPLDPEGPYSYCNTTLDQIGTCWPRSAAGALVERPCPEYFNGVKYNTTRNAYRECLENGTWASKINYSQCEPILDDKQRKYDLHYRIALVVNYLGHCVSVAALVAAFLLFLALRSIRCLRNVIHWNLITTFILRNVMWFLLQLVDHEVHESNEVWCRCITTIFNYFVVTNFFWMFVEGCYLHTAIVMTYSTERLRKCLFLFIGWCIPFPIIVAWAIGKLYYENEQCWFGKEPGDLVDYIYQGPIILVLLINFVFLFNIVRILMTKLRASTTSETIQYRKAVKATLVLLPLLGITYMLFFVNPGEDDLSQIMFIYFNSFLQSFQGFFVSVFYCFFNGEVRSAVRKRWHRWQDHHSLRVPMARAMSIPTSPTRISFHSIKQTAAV
T2 sequence (P24387 whole entry): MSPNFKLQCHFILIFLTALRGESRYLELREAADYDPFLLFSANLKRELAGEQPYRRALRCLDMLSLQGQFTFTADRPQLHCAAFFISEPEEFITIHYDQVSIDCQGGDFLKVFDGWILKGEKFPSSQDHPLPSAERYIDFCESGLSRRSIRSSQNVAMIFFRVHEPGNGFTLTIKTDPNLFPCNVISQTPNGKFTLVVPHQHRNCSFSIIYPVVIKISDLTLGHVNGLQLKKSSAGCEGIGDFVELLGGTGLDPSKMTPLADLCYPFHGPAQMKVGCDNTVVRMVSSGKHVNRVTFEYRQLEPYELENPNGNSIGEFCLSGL

[3] = biological target: T3, Replicative DNA helicase DnaB (Mycobacterium tuberculosis, UniProt P9WMR3); experiment: DnaB intein splicing inhibitors, dose response, biochemical, cell-free fluorescence (AID 449749)
T3 sequence (P9WMR3 whole entry): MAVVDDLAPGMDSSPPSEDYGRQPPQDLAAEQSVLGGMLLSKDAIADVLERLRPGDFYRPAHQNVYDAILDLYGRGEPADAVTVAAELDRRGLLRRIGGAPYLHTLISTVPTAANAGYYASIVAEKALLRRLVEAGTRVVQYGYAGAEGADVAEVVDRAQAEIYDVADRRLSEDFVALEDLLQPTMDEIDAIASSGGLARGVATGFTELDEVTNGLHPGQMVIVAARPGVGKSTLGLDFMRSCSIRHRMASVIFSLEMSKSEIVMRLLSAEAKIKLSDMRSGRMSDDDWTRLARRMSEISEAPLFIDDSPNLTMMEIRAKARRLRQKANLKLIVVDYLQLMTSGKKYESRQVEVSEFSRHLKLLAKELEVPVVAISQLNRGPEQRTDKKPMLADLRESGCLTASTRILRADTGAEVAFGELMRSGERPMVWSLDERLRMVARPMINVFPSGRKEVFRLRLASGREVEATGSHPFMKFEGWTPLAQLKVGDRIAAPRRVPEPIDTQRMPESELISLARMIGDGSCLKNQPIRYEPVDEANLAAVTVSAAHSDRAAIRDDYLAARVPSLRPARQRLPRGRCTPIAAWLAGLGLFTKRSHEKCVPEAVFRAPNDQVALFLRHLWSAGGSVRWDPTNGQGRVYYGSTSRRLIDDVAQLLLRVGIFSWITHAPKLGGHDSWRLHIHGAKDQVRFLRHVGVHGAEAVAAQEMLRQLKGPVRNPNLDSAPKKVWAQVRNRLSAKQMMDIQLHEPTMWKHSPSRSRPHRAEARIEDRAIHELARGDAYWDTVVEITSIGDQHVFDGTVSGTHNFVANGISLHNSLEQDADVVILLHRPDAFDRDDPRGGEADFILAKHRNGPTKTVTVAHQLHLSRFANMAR

Protein RecA = biological target: T4, Protein RecA (Mycobacterium tuberculosis, UniProt P9WHJ3); experiment: Fluorescence Cell-Free Homogeneous Dose Retest to Identify Inhibitors of RecA-Intein Splicing Activity. [Related pubchem assays (depositor defined):AID2097, AID2223, AID489010, AID492950]
T4 sequence (P9WHJ3 whole entry): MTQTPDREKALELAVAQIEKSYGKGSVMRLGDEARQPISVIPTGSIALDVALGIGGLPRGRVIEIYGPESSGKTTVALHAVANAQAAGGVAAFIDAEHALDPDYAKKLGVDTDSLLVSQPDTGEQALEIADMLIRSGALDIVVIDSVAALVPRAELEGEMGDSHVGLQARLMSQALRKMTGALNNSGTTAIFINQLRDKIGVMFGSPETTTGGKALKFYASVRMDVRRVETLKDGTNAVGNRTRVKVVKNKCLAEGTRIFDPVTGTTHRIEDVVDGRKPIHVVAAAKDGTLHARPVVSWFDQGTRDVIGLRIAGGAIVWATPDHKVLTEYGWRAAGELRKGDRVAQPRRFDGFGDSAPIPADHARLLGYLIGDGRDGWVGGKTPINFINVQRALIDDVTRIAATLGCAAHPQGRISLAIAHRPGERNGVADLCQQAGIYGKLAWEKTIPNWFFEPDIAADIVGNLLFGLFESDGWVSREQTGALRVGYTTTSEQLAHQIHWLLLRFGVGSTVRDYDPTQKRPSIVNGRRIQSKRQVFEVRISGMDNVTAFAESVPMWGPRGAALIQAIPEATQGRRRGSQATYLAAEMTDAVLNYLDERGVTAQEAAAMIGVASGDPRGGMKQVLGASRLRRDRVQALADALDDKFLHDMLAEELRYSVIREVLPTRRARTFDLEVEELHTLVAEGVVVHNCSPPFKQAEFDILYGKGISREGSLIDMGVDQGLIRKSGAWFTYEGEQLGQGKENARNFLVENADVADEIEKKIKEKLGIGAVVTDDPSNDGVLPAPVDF

[4] = biological target: T2, Corticotropin-releasing factor receptor 2/Corticotropin-releasing factor-binding protein; experiment: Dose Response confirmation of uHTS hits for small molecule antagonists of the CRF-binding protein and CRF-R2 receptor complex.; conditions: read-out: IC50_Mean

SMILES	EC50 [2]	IC50 [4]	other results
COc1ccc(CN2CCN(CCCCOc3ccc(Cl)cc3)CC2)c(OC)c1OC	–	–	IC50 [1]: 71.4 µM (active)
Cc1cccc(NC(=O)C2CC2c2ccccc2)c1C (configuration not stated)	> 53 µM (inactive)	–	–
CCCc1n[nH]c2c1C(c1c[nH]nc1-c1ccc(F)cc1)C(C#N)=C(N)O2 (configuration not stated)	–	–	AC50 [3]: 2.08 µM (active); EC50 (Protein RecA): 1.54 µM (active)
CCCCCCCCc1c(O)nc(-n2[nH]c(C)c(CCO)c2=O)[nH]c1=O	–	–	AC50 [3]: 47.4 µM (active); EC50 (Protein RecA): 96.8 µM (active)
COc1ccc(-c2cc(C(=O)O)nc3ccc4ccccc4c23)cc1OC	> 53 µM (inactive)	> 47.1 µM (inactive)	–
COc1ccc(CN(C(=O)c2ccc(C)cc2)C2CCS(=O)(=O)C2)cc1 (configuration not stated)	> 53 µM (inactive)	> 47.1 µM (inactive)	–
OCCN1CCN(C(S)=Nc2cccc(C(F)(F)F)c2)CC1	–	–	IC50 [1]: 126 µM (active)
COc1ccc([N+](=O)[O-])cc1N(CC(=O)NCCCOC(C)C)S(C)(=O)=O	> 53 µM (inactive)	> 47.1 µM (inactive)	–
Cc1cc(-c2[nH]nc3c2C(c2ccsc2)C(C#N)=C(N)O3)c(C)s1 (configuration not stated)	–	–	AC50 [3]: 3.47 µM (active); EC50 (Protein RecA): 1.2 µM (active)
COc1ccc(/C=C2/CC/C(=C\c3ccc(OC)c(OC)c3OC)C2=O)c(OC)c1OC	> 53 µM (inactive)	–	–
c1ccc(-c2ccccc2OCCN2CCOCC2)cc1	–	–	IC50 [1]: 111 µM (active)
CCN(CC(=O)NCc1ccc(F)cc1)C(=O)CN1CCN(c2ccc(OC)cc2)CC1	–	–	IC50 [1]: 42.3 µM (active)
CCOc1ccc(N(CC(=O)NCC2CCCO2)C(=O)CCC(=O)Nc2nccs2)cc1 (configuration not stated)	> 53 µM (inactive)	> 47.1 µM (inactive)	–
CC(NC(=O)C1CCCN1S(=O)(=O)c1cccc2nsnc12)c1ccccc1 (configuration not stated)	> 53 µM (inactive)	> 47.1 µM (inactive)	–
